≈ marks a conversion by molar mass, not a printed value.
Assays:
[1] = molecular target: Muscarinic acetylcholine receptor M3 (Homo sapiens, UniProt P20309); experiment: Agonist activity at human wild-type M3 receptor expressed in CHO-K1 cells assessed as calcium level by FDSS assay; assay type: functional, cell-based
[2] = molecular target: Kappa-type opioid receptor (Homo sapiens, UniProt P41145); experiment: Agonist activity at human wild-type opioid-kappa 1 receptor expressed in CHO-K1 cells assessed as cAMP level by HTRF assay; assay type: functional, cell-based
[3] = Fraction unbound in rat brain at 5 uM after 5 hrs by LC-MS/MS analysis; assay type: ADME, tissue-based
[4] = molecular target: 5-hydroxytryptamine receptor 7 (Homo sapiens, UniProt P34969); experiment: Antagonist activity at human wild-type 5-HT7 receptor expressed in HEK cells assessed as seretonin-induced cAMP by HTRF assay; assay type: functional, cell-based, HEK293
Mu-type opioid receptor [5] = molecular target: T1, Mu-type opioid receptor (Homo sapiens, UniProt P35372); experiment: Agonist activity at human wild-type opioid-mu receptor expressed in CHO-K1 cells assessed as cAMP level by HTRF assay; assay type: functional, cell-based
[6] = molecular target: T2, Muscarinic acetylcholine receptor M1 (Homo sapiens, UniProt P11229); experiment: Agonist activity at human wild-type M1 receptor expressed in CHO-K1 cells assessed as calcium level by FDSS assay; assay type: functional, cell-based
T2 sequence (P11229 whole entry): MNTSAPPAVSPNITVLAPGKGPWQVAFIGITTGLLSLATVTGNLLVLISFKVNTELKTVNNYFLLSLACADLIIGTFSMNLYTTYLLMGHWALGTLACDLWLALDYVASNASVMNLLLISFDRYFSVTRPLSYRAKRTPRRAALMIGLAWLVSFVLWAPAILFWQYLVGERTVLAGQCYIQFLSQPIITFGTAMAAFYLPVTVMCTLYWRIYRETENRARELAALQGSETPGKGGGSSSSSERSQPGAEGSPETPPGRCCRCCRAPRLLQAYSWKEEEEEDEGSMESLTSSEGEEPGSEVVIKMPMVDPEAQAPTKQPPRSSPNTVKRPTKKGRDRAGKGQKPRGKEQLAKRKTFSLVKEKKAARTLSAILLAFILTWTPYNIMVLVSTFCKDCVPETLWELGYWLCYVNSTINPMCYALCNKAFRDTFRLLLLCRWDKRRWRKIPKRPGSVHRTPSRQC

[7] = molecular target: T3, Alpha-2A adrenergic receptor (Homo sapiens, UniProt P08913); experiment: Agonist activity at human wild-type alpha 2A receptor expressed in CHO-K1 cells assessed as cAMP level by HTRF assay; assay type: functional, cell-based
T3 sequence (P08913 whole entry): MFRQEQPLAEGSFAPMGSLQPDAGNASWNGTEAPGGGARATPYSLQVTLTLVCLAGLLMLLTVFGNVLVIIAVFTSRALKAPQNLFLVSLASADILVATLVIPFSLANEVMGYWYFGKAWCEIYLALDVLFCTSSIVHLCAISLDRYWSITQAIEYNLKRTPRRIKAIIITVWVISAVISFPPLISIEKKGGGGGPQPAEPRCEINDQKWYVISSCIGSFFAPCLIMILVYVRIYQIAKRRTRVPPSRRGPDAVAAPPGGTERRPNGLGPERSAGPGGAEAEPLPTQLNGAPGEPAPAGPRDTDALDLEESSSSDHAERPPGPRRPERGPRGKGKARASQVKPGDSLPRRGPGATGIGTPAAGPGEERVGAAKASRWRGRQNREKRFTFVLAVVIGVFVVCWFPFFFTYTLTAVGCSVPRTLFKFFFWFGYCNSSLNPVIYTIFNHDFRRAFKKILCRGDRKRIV

Adenosine receptor A3 = molecular target: T4, Adenosine receptor A3 (Homo sapiens, UniProt P0DMS8); experiment: Agonist activity at human wild-type A3 receptor expressed in CHO-K1 cells assessed as cAMP level by HTRF assay; assay type: functional, cell-based
T4 sequence (P0DMS8 whole entry): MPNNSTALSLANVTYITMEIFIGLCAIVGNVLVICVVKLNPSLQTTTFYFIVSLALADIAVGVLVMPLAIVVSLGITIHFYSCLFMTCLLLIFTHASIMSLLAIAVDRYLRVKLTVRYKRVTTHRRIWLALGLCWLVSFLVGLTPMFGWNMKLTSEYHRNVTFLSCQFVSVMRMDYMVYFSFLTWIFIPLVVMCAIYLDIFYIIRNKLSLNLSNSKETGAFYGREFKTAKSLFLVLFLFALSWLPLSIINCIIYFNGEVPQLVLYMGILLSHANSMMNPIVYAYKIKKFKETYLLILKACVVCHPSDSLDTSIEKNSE

Mu-type opioid receptor [8] = molecular target: T1, Mu-type opioid receptor; experiment: Antagonist activity at human wild-type opioid-mu receptor expressed in CHO-K1 cells assessed as DAMGO-induced cAMP by HTRF assay; assay type: functional, cell-based
[9] = molecular target: 5-hydroxytryptamine receptor 2B (Homo sapiens, UniProt P41595); experiment: Agonist activity at human 5-HT2B receptor expressed in CHO-K1 cells assessed as calcium level by FDSS assay; assay type: functional, cell-based
[10] = Chemical stability of compound in 0.1N NaOH assessed as compound remaining at 10 mg/ml after 2 days; assay type: physicochemical; conditions: read-out: Stability
[11] = Chemical stability of compound in buffer at pH 7.4 assessed as compound remaining at 10 mg/ml after 2 days; assay type: physicochemical; conditions: read-out: Stability
[12] = Kinetic solubility of compound in phosphate buffer at pH 7.4 for 4 hrs by UPLC/UV analysis; assay type: physicochemical; conditions: read-out: Kinetic_solubility
[13] = Chemical stability of compound in buffer at pH 7.4 assessed as compound remaining at 10 mg/ml after 1 day; assay type: physicochemical; conditions: read-out: Stability
[14] = molecular target: 5-hydroxytryptamine receptor 2A (Homo sapiens, UniProt P28223); experiment: Antagonist activity at human 5-HT2A receptor expressed in CHO-K1 cells assessed as seretonin-induced calcium level by FDSS assay; assay type: functional, cell-based
[15] = molecular target: Beta-1 adrenergic receptor (Homo sapiens, UniProt P08588); experiment: Antagonist activity at human beta1 receptor expressed in CHO-K1 cells assessed as isoproterenol-induced cAMP level by HTRF assay; assay type: functional, cell-based
[16] = molecular target: T5, Alpha-1A adrenergic receptor (Homo sapiens, UniProt P35348); experiment: Agonist activity at human wild-type alpha 1A receptor expressed in CHO cells assessed as calcium level by HTRF assay; assay type: functional, cell-based
T5 sequence (P35348 whole entry): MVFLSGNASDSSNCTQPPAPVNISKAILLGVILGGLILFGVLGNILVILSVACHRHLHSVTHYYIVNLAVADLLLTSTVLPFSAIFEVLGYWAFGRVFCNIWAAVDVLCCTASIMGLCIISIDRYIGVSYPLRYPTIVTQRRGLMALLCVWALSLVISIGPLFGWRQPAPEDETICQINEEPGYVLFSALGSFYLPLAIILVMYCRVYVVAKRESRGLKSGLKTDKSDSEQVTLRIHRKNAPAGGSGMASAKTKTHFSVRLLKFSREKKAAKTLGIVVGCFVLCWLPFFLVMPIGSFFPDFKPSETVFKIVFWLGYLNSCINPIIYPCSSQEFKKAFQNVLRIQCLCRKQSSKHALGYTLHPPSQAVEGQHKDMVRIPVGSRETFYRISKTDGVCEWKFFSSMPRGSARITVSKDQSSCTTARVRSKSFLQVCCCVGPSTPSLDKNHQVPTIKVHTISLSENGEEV

[17] = Chemical stability of compound in 0.1N HCL assessed as compound remaining at 10 mg/ml after 1 day; assay type: physicochemical; conditions: read-out: Stability
Cytochrome P450 3A4 = Cytochrome P450 3A4 (Homo sapiens, UniProt P08684); experiment: Inhibition of human CYP3A4 by LC-MS analysis; assay type: ADME
Sequence of Cytochrome P450 3A4 (P08684 whole entry): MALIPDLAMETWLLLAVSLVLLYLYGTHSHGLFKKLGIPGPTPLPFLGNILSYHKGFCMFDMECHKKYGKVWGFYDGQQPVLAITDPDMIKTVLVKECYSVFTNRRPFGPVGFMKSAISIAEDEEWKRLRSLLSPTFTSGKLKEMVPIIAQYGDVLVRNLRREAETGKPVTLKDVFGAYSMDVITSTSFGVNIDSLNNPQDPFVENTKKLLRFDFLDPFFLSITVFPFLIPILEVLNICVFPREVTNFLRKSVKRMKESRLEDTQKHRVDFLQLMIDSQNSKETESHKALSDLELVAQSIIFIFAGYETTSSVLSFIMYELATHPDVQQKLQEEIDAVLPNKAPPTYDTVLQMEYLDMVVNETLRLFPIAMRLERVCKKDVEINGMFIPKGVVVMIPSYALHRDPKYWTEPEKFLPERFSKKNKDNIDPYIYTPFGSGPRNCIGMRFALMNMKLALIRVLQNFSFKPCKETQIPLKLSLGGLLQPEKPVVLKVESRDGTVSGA

T1 sequence (P35372 whole entry): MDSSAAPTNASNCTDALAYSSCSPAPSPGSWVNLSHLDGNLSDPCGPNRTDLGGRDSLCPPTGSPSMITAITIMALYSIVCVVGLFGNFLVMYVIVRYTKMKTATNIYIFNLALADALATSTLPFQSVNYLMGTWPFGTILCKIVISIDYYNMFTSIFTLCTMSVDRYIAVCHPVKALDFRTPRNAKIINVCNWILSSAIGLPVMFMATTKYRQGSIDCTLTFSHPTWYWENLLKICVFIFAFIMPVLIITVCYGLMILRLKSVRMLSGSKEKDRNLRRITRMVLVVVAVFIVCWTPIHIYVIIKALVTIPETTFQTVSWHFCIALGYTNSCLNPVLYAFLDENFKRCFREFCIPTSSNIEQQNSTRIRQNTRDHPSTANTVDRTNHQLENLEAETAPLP
Sequence of 5-hydroxytryptamine receptor 2B (P41595 whole entry): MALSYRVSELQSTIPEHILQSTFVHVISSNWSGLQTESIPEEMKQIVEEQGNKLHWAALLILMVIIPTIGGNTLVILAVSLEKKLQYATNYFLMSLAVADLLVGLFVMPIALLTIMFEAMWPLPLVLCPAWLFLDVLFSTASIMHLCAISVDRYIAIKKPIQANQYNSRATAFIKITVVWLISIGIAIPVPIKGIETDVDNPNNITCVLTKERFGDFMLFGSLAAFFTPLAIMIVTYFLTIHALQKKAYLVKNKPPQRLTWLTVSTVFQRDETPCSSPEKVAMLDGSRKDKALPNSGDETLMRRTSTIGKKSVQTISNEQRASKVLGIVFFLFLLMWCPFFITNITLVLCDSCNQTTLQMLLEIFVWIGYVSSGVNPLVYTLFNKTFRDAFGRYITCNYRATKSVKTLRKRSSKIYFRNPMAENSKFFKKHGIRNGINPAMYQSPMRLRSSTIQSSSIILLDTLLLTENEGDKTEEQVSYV
Sequence of 5-hydroxytryptamine receptor 2A (P28223 whole entry): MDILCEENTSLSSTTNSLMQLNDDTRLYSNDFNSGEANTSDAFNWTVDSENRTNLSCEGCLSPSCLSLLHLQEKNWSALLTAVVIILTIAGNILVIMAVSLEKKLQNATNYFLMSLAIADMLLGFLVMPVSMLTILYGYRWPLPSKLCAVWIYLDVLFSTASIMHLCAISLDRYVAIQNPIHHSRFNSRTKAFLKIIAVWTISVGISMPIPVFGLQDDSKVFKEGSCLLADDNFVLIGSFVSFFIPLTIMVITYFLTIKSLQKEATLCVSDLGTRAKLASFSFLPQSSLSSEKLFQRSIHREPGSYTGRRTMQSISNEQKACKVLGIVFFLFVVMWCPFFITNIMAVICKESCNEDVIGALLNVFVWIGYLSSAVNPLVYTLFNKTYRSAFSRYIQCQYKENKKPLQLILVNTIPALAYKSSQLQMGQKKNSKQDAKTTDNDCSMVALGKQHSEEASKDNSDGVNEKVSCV
Sequence of Kappa-type opioid receptor (P41145 whole entry): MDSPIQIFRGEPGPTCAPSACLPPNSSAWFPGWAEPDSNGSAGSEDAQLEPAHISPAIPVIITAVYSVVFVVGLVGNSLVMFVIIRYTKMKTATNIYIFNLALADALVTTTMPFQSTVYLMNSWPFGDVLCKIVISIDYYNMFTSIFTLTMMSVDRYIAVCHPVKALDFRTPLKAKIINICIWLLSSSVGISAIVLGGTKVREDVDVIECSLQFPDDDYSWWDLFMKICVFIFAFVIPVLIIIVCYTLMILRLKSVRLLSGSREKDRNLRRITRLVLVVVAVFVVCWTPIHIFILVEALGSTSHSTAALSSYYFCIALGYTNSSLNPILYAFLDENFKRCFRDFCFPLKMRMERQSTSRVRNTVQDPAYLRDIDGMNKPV
Sequence of 5-hydroxytryptamine receptor 7 (P34969 whole entry): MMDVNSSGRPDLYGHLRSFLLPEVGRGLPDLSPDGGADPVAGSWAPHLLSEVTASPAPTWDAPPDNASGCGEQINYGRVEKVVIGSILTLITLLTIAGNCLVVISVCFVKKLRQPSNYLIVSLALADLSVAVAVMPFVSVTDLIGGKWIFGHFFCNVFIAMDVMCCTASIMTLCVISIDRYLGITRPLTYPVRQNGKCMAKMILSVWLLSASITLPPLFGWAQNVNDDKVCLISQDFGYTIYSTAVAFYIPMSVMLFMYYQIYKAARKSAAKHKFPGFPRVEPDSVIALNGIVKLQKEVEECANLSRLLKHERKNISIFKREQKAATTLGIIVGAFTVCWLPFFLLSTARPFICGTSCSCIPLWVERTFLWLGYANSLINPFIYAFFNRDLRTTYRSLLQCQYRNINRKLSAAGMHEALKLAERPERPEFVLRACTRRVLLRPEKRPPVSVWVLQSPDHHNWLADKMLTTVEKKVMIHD
Sequence of Beta-1 adrenergic receptor (P08588 whole entry): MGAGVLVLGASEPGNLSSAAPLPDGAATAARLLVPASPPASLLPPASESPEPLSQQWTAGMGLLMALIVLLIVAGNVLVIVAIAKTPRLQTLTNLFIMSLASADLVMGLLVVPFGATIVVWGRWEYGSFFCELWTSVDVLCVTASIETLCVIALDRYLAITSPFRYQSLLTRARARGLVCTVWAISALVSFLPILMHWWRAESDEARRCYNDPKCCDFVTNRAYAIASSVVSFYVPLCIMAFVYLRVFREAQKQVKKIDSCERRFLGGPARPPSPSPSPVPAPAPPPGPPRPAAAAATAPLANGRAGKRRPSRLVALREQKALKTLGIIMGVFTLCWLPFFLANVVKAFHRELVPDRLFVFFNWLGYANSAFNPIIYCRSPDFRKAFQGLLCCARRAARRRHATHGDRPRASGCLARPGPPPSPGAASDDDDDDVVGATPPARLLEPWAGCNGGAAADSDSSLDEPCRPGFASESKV
Sequence of Muscarinic acetylcholine receptor M3 (P20309 whole entry): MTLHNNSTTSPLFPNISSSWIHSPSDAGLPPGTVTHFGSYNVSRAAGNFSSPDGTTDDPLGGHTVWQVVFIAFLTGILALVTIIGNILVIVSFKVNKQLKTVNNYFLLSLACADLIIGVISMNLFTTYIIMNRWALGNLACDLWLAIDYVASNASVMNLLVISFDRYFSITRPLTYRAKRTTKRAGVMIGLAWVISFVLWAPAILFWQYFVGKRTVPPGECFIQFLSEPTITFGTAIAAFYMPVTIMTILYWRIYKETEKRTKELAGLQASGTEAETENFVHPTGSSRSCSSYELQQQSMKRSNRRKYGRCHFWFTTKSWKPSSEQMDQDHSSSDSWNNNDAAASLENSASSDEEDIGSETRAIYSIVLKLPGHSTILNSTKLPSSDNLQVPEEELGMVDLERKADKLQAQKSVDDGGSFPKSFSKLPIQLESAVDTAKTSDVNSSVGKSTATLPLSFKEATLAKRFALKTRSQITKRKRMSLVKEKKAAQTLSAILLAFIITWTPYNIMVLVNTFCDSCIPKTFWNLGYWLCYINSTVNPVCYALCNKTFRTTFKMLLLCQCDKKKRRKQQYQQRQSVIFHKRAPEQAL

Structure (SMILES)	EC50 [1] [µM]	EC50 [2] [µM]	fraction unbound at 5 h, 5 µM [3]	IC50 [4] [µM]	EC50 (Mu-type opioid receptor [5]) [µM]	EC50 [6] [µM]	EC50 [7] [µM]	EC50 (Adenosine receptor A3) [µM]	IC50 (Mu-type opioid receptor [8]) [µM]	EC50 [9] [µM]	remaining at 48 h, 10 mg/ml [10] [%]	remaining at 48 h, 10 mg/ml [11] [%]	solubility kinetic at 4 h [12] [µM]	remaining at 24 h, 10 mg/ml [13] [%]	IC50 [14] [µM]	IC50 [15] [µM]	EC50 [16] [µM]	remaining at 24 h, 10 mg/ml [17] [%]	IC50 (Cytochrome P450 3A4) [µM]
CB1C=Cc2c(cccc2OCC(O)CN(C)C)N1 (stereo not drawn)	> 5.01	> 5.01	0.019	> 5.01	> 5.01	> 5.01	> 5.01	> 5.01	> 5.01	> 5.01	83	96	647 (≈ 168 µg/mL)	96	> 5.01	0.2	> 5.01	0	> 10
CB1C=Cc2cccc(OCC(O)CNC(C)C)c2N1 (stereo not drawn)	> 5.01	> 5.01	0.0055	> 5.01	> 5.01	> 5.01	> 5.01	> 5.01	> 5.01	> 5.01	82	91	699 (≈ 192 µg/mL)	93	> 5.01	0.631	> 5.01	0	> 10

— ChEMBL document CHEMBL3734721 (J Med Chem, 2015)
